# Source: US8247211B2, “Glycopeptide antibiotics” (American Cyanamid Company, priority 2001, dated 2012)
# Numbered stars: 1 amine (or outer) side, 2 acyl side, 3 side chain; on linkers, the order of the positions; unused ones are H or OH. Square brackets hold non-standard residues; d marks the D form. Peptide text beside a SMILES is read from it. ξ: configuration not given here. X3 = CC1(C)OCC2OC(N3C(=N)NCC3C(O)C(N[*:1])C(=O)[*:2])C3OC(C)(C)OC3C2O1; ξEnduracididine(βξ-OH,4'ξ) = N=C1NCC(C(O)C(N)C(=O)O)N1; ξPhe(βξ-Me) = CC(c1ccccc1)C(N)C(=O)O
# Key:
# Test in all cases: In vitro antibacterial evaluation: minimum inhibitory concentration (MIC), broth dilution method
# Format in all cases: cell-based
# Details in all cases: 18 hours at 35° C.
# Enterococcus sp. = system: Enterococcus sp.
# Procedure, shortened: (§1)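 An MIC is reported for each organism as the least concentration giving inhibition, using broth dilution over 64-0.06 μg/mL with a 5×10^5 CFU/mL inoculum.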
# Escherichia coli = system: Escherichia coli
# Procedure, shortened: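 Inoculum: 5×10^5 CFU/mL. Range: 64-0.06 μg/mL. Medium: Muller-Hinton II […]; NCCLS M7-A2 broth dilution. Endpoint: lowest concentration inhibiting growth. Strains include methicillin-, penicillin- and/or vancomycin-resistant clinical isolates.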
# Staphylococcus sp. = system: Staphylococcus sp.
# Procedure, shortened: as §1
# Streptococcus sp. = system: Streptococcus sp.
# Procedure, shortened: as §1
MIC Enterococcus avium (GC 4558) (Enterococcus sp.) [µg/mL],MIC Enterococcus faecalis (ATCC 29212) (Enterococcus sp.) [µg/mL],MIC Enterococcus faecalis (GC 2242) (Enterococcus sp.) [µg/mL],MIC Enterococcus faecalis (GC 4553) (Enterococcus sp.) [µg/mL],MIC Enterococcus faecalis (GC 4554) (Enterococcus sp.) [µg/mL],MIC Enterococcus faecium (GC 2243) (Enterococcus sp.) [µg/mL],MIC Enterococcus faecium (GC 4556) (Enterococcus sp.) [µg/mL],MIC Enterococcus faecium (GC 4557) (Enterococcus sp.) [µg/mL],MIC Escherichia coli (ATCC 25922) (Escherichia coli) [µg/mL],MIC Escherichia coli (GC 4559) (Escherichia coli) [µg/mL],MIC Escherichia coli (GC 4560) (Escherichia coli) [µg/mL],MIC Coagulase Negative Staphylococcus (GC 4547) (Staphylococcus sp.) [µg/mL],MIC Coagulase Negative Staphylococcus (GC 4548) (Staphylococcus sp.) [µg/mL],MIC Coagulase Negative Staphylococcus (GC 4549) (Staphylococcus sp.) [µg/mL],MIC Coagulase Negative Staphylococcus (GC 4551) (Staphylococcus sp.) [µg/mL],MIC Staphylococcus aureus (ATCC 29213) (Staphylococcus sp.) [µg/mL],MIC Staphylococcus aureus (GC 1131) (Staphylococcus sp.) [µg/mL],MIC Staphylococcus aureus (GC 4541) (Staphylococcus sp.) [µg/mL],MIC Staphylococcus aureus (GC 4542) (Staphylococcus sp.) [µg/mL],MIC Staphylococcus aureus (GC 4544) (Staphylococcus sp.) [µg/mL],Structure (SMILES),also measured
>64,>64,>64,>64,>64,>64,>64,>64,>64,>64,>64,>64,>64,>64,>64,>64,>64,>64,>64,>64,"CC(c1ccccc1)C1NC(=O)CNC(=O)C(CO)NC(=O)C(C(O)C2CNC(=N)N2C2OC3COC(C)(C)OC3C3OC(C)(C)OC32)NC(=O)C(C(O)C2CNC(=N)N2)NC(=O)C(Cc2ccc(O)cc2)NC1=O (stereo not drawn) [Example 247, Cyclo[glycyl-β-methylphenylalanyltyrosyl-3-(2-iminoimidazolidin-4-yl)seryl-3-(2,3:4,6-diisopropylidenehexopyranosyl)-2-iminoimidazolidin-4-ylserylseryl]] (cyclo(G[ξPhe(βξ-Me)]Y[ξEnduracididine(βξ-OH,4'ξ)][X3]S); configuration not given here)",MIC Enterococcus faecalis (GC 2691) (Enterococcus sp.): >64 µg/mL; MIC Enterococcus faecalis (GC 3059) (Enterococcus sp.; Enterococcus faecalis (GC 3059)): >64 µg/mL; MIC Enterococcus faecalis (GC 4552) (Enterococcus sp.): >64 µg/mL; MIC Enterococcus faecalis (GC 6189) (Enterococcus sp.): >64 µg/mL; MIC Coagulase Negative Staphylococcus (GC 6257) (Staphylococcus sp.): >64 µg/mL; MIC Staphylococcus aureus (GC 3051) (Staphylococcus sp.): >64 µg/mL; MIC Staphylococcus aureus (GC 3053) (Staphylococcus sp.): >64 µg/mL; MIC Staphylococcus aureus (GC 4545) (Staphylococcus sp.): >64 µg/mL; MIC Staphylococcus aureus-SMITH (GC 4543) (Staphylococcus sp.): >64 µg/mL; MIC Staphylococcus haemolyticus (GC 4546) (Staphylococcus sp.): >64 µg/mL; MIC Streptococcus agalactiae (GC 4564) (Streptococcus sp.): >64 µg/mL; MIC Streptococcus pneumoniae (ATCC 6301) (Streptococcus sp.): >64 µg/mL; MIC Streptococcus pneumoniae (GC 1894) (Streptococcus sp.): >64 µg/mL; MIC Streptococcus pneumoniae (GC 4565) (Streptococcus sp.): >64 µg/mL; MIC Streptococcus pyogenes (GC 4563) (Streptococcus sp.): >64 µg/mL
8,64,64,16,64,32,32,16,64,64,8,16,32,32,32,32,32,32,64,32,CC(c1ccccc1)C1NC(=O)CNC(=O)C(CO[Si](C)(C)C(C)(C)C)NC(=O)C(C(O)C2CNC(=N)N2C2OC3COC(C)(C)OC3C3OC(C)(C)OC32)NC(=O)C(C(O)C2CNC(=N)N2)NC(=O)C(Cc2ccc(O)cc2)NC1=O (stereo not drawn) [Example 248],MIC Enterococcus faecalis (GC 2691) (Enterococcus sp.): 32 µg/mL; MIC Enterococcus faecalis (GC 6189) (Enterococcus sp.): 32 µg/mL; MIC Coagulase Negative Staphylococcus (GC 6257) (Staphylococcus sp.): 16 µg/mL; MIC Staphylococcus aureus (GC 3051) (Staphylococcus sp.): 64 µg/mL; MIC Staphylococcus aureus (GC 3053) (Staphylococcus sp.): 64 µg/mL; MIC Staphylococcus aureus (GC 4545) (Staphylococcus sp.): 32 µg/mL; MIC Staphylococcus aureus-SMITH (GC 4543) (Staphylococcus sp.): 32 µg/mL; MIC Staphylococcus haemolyticus (GC 4546) (Staphylococcus sp.): 16 µg/mL; MIC Streptococcus agalactiae (GC 4564) (Streptococcus sp.): 64 µg/mL; MIC Streptococcus pneumoniae (ATCC 6301) (Streptococcus sp.): 64 µg/mL; MIC Streptococcus pneumoniae (GC 1894) (Streptococcus sp.): 64 µg/mL; MIC Streptococcus pyogenes (GC 4563) (Streptococcus sp.): 32 µg/mL
>64,>64,>64,>64,>64,>64,>64,64,>64,>64,4,>64,>64,>64,>64,>64,>64,>64,>64,>64,"CCCCCNC(=O)OC1C(CO)OC(OC2C(CO)OC(Oc3ccc(CC4NC(=O)C(C(C)c5ccccc5)NC(=O)CNC(=O)C(CO)NC(=O)C(C(O)C5CNC(=N)N5C5OC(CO)C(O)C(O)C5O)NC(=O)C(C(O)C5CNC(=N)N5)NC4=O)cc3)C(O)C2O)C(O)C1O (stereo not drawn) [Example 251, α-O-[(Pentylamino)carbonyl]-cyclo[glycyl-β-methylphenylalanyl-O-(4-O-hexopyranosylhexopyranosyl)tyrosyl-3-(2-iminoimidazolidin-4-yl)seryl-3-(3-hexopyranosyl-2-iminoimidazolidin-4-yl)serylseryl]]",MIC Enterococcus faecalis (GC 4552) (Enterococcus sp.): >64 µg/mL; MIC Coagulase Negative Staphylococcus (ID-3941) (Staphylococcus sp.): 64 µg/mL; MIC Staphylococcus aureus (GC 4545) (Staphylococcus sp.): >64 µg/mL; MIC Staphylococcus aureus-SMITH (GC 4543) (Staphylococcus sp.): >64 µg/mL; MIC Staphylococcus haemolyticus (GC 4546) (Staphylococcus sp.): >64 µg/mL; MIC Streptococcus agalactiae (GC 4564) (Streptococcus sp.): >64 µg/mL; MIC Streptococcus pneumoniae (GC 4565) (Streptococcus sp.): 64 µg/mL; MIC Streptococcus pyogenes (ID-3187) (Streptococcus sp.): 64 µg/mL
64,64,32,64,64,64,64,4,>64,>64,2,8,8,4,16,16,8,8,8,16,"CCCCCNC(=O)OCC1OC(OC2C(CO)OC(Oc3ccc(CC4NC(=O)C(C(C)c5ccccc5)NC(=O)CNC(=O)C(CO)NC(=O)C(C(O)C5CNC(=N)N5C5OC(CO)C(O)C(O)C5O)NC(=O)C(C(O)C5CNC(=N)N5)NC4=O)cc3)C(O)C2O)C(O)C(O)C1O (stereo not drawn) [Example 251b, γ-O-[(Pentylamino)carbonyl]-cyclo[glycyl-β-methylphenylalanyl-O-(4-O-hexopyranosylhexopyranosyl)tyrosyl-3-(2-iminoimidazolidin-4-yl)seryl-3-(3-hexopyranosyl-2-iminoimidazolidin-4-yl)serylseryl]]",MIC Enterococcus faecalis (GC 4552) (Enterococcus sp.): 64 µg/mL; MIC Coagulase Negative Staphylococcus (ID-3941) (Staphylococcus sp.): 4 µg/mL; MIC Staphylococcus aureus (GC 4545) (Staphylococcus sp.): 8 µg/mL; MIC Staphylococcus aureus-SMITH (GC 4543) (Staphylococcus sp.): 8 µg/mL; MIC Staphylococcus haemolyticus (GC 4546) (Staphylococcus sp.): 8 µg/mL; MIC Streptococcus agalactiae (GC 4564) (Streptococcus sp.): 4 µg/mL; MIC Streptococcus pneumoniae (GC 4565) (Streptococcus sp.): 1 µg/mL; MIC Streptococcus pyogenes (ID-3187) (Streptococcus sp.): 2 µg/mL
